From patent publication US11015061B2, “Phthalocyanine-based compound and uses of same” (YAMAMOTO CHEMICALS, INC., priority 2017, dated 2021)

Assays:
Format in all cases: physicochemical
[1] = Solubility in organic solvent (cyclopentanone); conditions: about 10 wt % dispersion, room temperature, 0.2 μm filter; no residue = 10 wt % or more
Description: The solubility of the phthalocyanine compound with respect to cyclopentanone was measured by the following method.
Cyclopentanone was added to about 1 g of the phthalocyanine compound such that the total weight thereof became about 10 g, and the obtained solution was irradiated with ultrasonic waves for about 30 minutes and then stirred for 2 hours at room temperature, thereby preparing a dispersion liquid of about 10 wt %.
The dispersion liquid was filtered through a membrane filter (0.2 μm), the substance obtained by filtration was dried for 1 hour in a drier at 60° C., and then the weight of the substance obtained by filtration was measured.
The solubility of the phthalocyanine compound in a solvent is expressed by the following equation. Solubility (wt %)=(W0−W1)/W0
W0 represents the correct weight of the phthalocyanine not yet being treated, and W1 represents the weight of the substance obtained by filtration (dissolved phthalocyanine compound residue) having been dried.

[2] = Tts (total solar transmittance) of heat ray shielding film; conditions: heat ray shielding film (5 g compound, 50 g acryl resin LP-45M, 2.5 μm on PET) on 3 mm glass plate; JIS R3106
Source text: The phthalocyanine compound (Specific Example (1)-30) produced in Example 1 (5 g), 50 g of an acryl resin LP-45M (trade name, produced by Soken Chemical & Engineering Co., Ltd.), 20 g of methyl ethyl ketone, and 20 g of toluene were mixed and stirred together, thereby producing a resin composition.
As a transparent substrate, a polyethylene terephthalate film (PET film) having a thickness of 100 μm was bar-coated with the resin composition such that the thickness thereof became 2.5 μm, and then the applied resin composition was dried for 3 minutes at 100° C. Furthermore, the other surface of the PET film (surface not being coated with the resin composition) was bar-coated with a transparent acryl copolymer-based pressure sensitive adhesive such that the thickness thereof became 20 μm, and the applied pressure sensitive adhesive was dried and cured for 3 minutes at 100° C. Thereafter, a release film was bonded to the surface of the pressure sensitive adhesive, thereby producing a heat ray shielding film.
(§1) In the evaluation test, the release film was peeled from the produced heat ray shielding film, then the heat ray shielding film was compressed on a 5 cm×5 cm×3 mm (thickness) glass plate, and a test piece created in this way was used.
By using U-3500 type recording spectrophotometer produced by Hitachi, Ltd. as a measurement instrument, Tts of the laminated glass sample was measured based on JIS R3106 “Testing method for transmittance, reflectance, emissivity, and solar heat gain coefficient of flat glasses”.
Tts (Total solar energy transmitted through a glazing) represents a total solar transmittance.

[3] = Light fastness test of heat ray shielding film; conditions: xenon light 200 hours at 550 W/h, absorbance integrated 400 to 900 nm
Description: as §1
(§2) For a light fastness test, the absorption spectrum of the test piece was measured using a spectrophotometer (produced by Hitachi, Ltd.: Spectrophotometer U-3500) and adopted as a spectrum before light fastness test. Then, the test piece used for measuring the spectrum before test was irradiated with light for 200 hours at 550 W/h by using a xenon light fastness tester (produced by Toyo Seiki Seisaku-sho, Ltd.: SUNTEST XLS+). The absorption spectrum of the test piece irradiated with light was measured using the spectrophotometer and adopted as a spectrum after light fastness test.
(§3) In each of the spectra measured as above before and after the light fastness⋅heat resistance test, the values of absorbance within a range of 400 to 900 nm were integrated, and a difference between the integrated value before the light fastness⋅heat resistance test and the integrated value after the light fastness⋅heat resistance test was calculated.
(§4) The difference ΔE between the absorbance before the light fastness⋅heat resistance test and the absorbance after the light fastness⋅heat resistance test is expressed by the following equation. ΔE (%)={E(400 to 900 nm in E1)−E(400 to 900 nm in E2)}/E(400 to 900 nm in E1)×100
(§5) E1 represents the spectrum before test, E2 represents the spectrum after test, and Σ represents integration of the values of absorbance.
(§6) The larger the value of ΔE, the greater the spectrum change between before and after the light fastness⋅heat resistance test.

[4] = Light fastness test of laminated glass; conditions: xenon light 200 hours at 550 W/h, absorbance integrated 400 to 900 nm
Description: (§7) The phthalocyanine-based compound (Specific Example (1)-30) produced in Example 1 (0.013 g) was dissolved in 40 g of triethylene glycol-di-2-ethylhexanoate as an organic ester plasticizer. The obtained solution was added to 100 g of a polyvinyl butyral resin (trade name: BH-3, produced by SEKISUI CHEMICAL CO., LTD.), thoroughly melted and kneaded using a mixing roll, and extruded using an extruder, thereby obtaining an interlayer having a thickness of 0.76 mm.
(§8) The interlayer was cut in size of 100 mm×100 mm, interposed between heat ray absorbing glass plates (100 mm (length)×100 mm (width)×2.0 mm (thickness)) prepared based on JIS R3208, put into a rubber bag, and deaerated for 20 minutes at a degree of vacuum of 2.6 kPa. Then, the deaerated laminate was moved into an oven and further hold for 30 minutes at 90° C. to vacuum press. Thereafter, the laminate was compressed for 20 minutes in an autoclave under the condition of a temperature of 130° C. and a pressure of 1.3 MPa, thereby obtaining a laminated glass sample.
as §2, with “laminated glass” for “test piece”
as §3, §4
(§9) E1 represents the spectrum before test, E2 represents the spectrum after test, and Σ represents integration of values of absorbance. The larger the value of ΔE, the greater the spectrum change between before and after the light fastness⋅heat resistance test.

[5] = Tts of laminated glass sample; conditions: 0.76 mm PVB interlayer with 0.013 g compound per 100 g resin, JIS R3106
Description: as §7, §8
By using U-3500 type recording spectrophotometer produced by Hitachi, Ltd. as a measurement instrument, Tts of the laminated glass samples was measured based on JIS R3106 “Testing method for transmittance, reflectance, emissivity, and solar heat gain coefficient of flat glasses”.

[6] = Heat resistance test of laminated glass; conditions: 200 hours at 100° C., absorbance integrated 400 to 900 nm
Description: as §7, §8
For a heat resistance test, the laminated glass used for measuring the spectrum before test as described above was treated with heat for 200 hours at a temperature of 100° C. in a thermostat (produced by Yamato Scientific co., ltd.: IG400). By using the spectrophotometer, the absorption spectrum of the heat-treated laminated glass was measured and adopted as a spectrum after heat resistance test.
as §3, §4, §9

[7] = Heat resistance test of heat ray shielding film; conditions: 200 hours at 100° C., absorbance integrated 400 to 900 nm
Description: as §1
For a heat resistance test, the test piece used for measuring the spectrum before test as described above was treated with heat for 200 hours at a temperature of 100° C. in a thermostat (produced by Yamato Scientific co., ltd.: IG400). By using the spectrophotometer, the absorption spectrum of the heat-treated test piece was measured and adopted as a spectrum after heat resistance test.
as §3, §4, §5, §6

| SMILES | Solubility to cyclopentanone (wt %) [1] | Tts [2] | ΔE (%) Light fastness [3] | ΔE (%) Light fastness [4] | Tts [5] | ΔE (%) Heat resistance [6] | ΔE (%) Heat resistance [7] |
| --- | --- | --- | --- | --- | --- | --- | --- |
| COc1cccc(OC)c1OCCCCc1ccc(CCCCOc2c(OC)cccc2OC)c2c1-c1nc-2nc2[n-]c(nc3nc(nc4[n-]c(n1)c1c(CCCCOc5c(OC)cccc5OC)ccc(CCCCOc5c(OC)cccc5OC)c41)-c1c(CCCCOc4c(OC)cccc4OC)ccc(CCCCOc4c(OC)cccc4OC)c1-3)c1c(CCCCOc3c(OC)cccc3OC)ccc(CCCCOc3c(OC)cccc3OC)c21.[Cu+2] [Specific Example (1)-45] | ≥10% wt % | 85.5% | 2% | 3% | 52.5% | 4% | 3% |
| COc1cccc(OC)c1OCCCCc1ccc(CCCCOc2c(OC)cccc2OC)c2c1-c1nc-2nc2[n-]c(nc3nc(nc4[n-]c(n1)c1c(CCCCOc5c(OC)cccc5OC)ccc(CCCCOc5c(OC)cccc5OC)c41)-c1c(CCCCOc4c(OC)cccc4OC)ccc(CCCCOc4c(OC)cccc4OC)c1-3)c1c(CCCCOc3c(OC)cccc3OC)ccc(CCCCOc3c(OC)cccc3OC)c21.[O]=[V+2] [Specific Example (1)-44] | ≥10% wt % | 85.6% | 3% | 3% | 52.9% | 3% | 4% |
| [O]=[V+2].c1ccc(OCCOCCCCc2ccc(CCCCOCCOc3ccccc3)c3c2-c2nc-3nc3[n-]c(nc4nc(nc5[n-]c(n2)c2c(CCCCOCCOc6ccccc6)ccc(CCCCOCCOc6ccccc6)c52)-c2c(CCCCOCCOc5ccccc5)ccc(CCCCOCCOc5ccccc5)c2-4)c2c(CCCCOCCOc4ccccc4)ccc(CCCCOCCOc4ccccc4)c32)cc1 [Specific Example (1)-38] | ≥10% wt % | 85.8% | 5% | 4% | 51.7% | 2% | 3% |
| Fc1ccccc1OCCCCc1ccc(CCCCOc2ccccc2F)c2c1-c1nc-2nc2[n-]c(nc3nc(nc4[n-]c(n1)c1c(CCCCOc5ccccc5F)ccc(CCCCOc5ccccc5F)c41)-c1c(CCCCOc4ccccc4F)ccc(CCCCOc4ccccc4F)c1-3)c1c(CCCCOc3ccccc3F)ccc(CCCCOc3ccccc3F)c21.[O]=[V+2] [Specific Example (1)-43] | ≥10% wt % | 85.7% | 2% | 3% | 52% | 4% | 3% |
| CC(C)(C)c1ccc(OCCCCc2ccc(CCCCOc3ccc(C(C)(C)C)cc3)c3c2-c2nc-3nc3[n-]c(nc4nc(nc5[n-]c(n2)c2c(CCCCOc6ccc(C(C)(C)C)cc6)ccc(CCCCOc6ccc(C(C)(C)C)cc6)c52)-c2c(CCCCOc5ccc(C(C)(C)C)cc5)ccc(CCCCOc5ccc(C(C)(C)C)cc5)c2-4)c2c(CCCCOc4ccc(C(C)(C)C)cc4)ccc(CCCCOc4ccc(C(C)(C)C)cc4)c32)cc1.[O]=[V+2] [Specific Example (1)-42] | ≥10% wt % | 86% | 4% | 2% | 52.3% | 3% | 4% |
| COCc1ccc(COC)c2c1-c1nc-2nc2[n-]c(nc3nc(nc4[n-]c(n1)c1c(COC)ccc(COC)c41)-c1c(COC)ccc(COC)c1-3)c1c(COC)ccc(COC)c21.[O]=[V+2] [Comparative Example Compound (a), reference compound] | ≤1% wt % | 89.5% | 33% | 33% | 53.6% | 35% | 31% |
| [O]=[V+2].c1ccc(OCCCCc2ccc(CCCCOc3ccccc3)c3c2-c2nc-3nc3[n-]c(nc4nc(nc5[n-]c(n2)c2c(CCCCOc6ccccc6)ccc(CCCCOc6ccccc6)c52)-c2c(CCCCOc5ccccc5)ccc(CCCCOc5ccccc5)c2-4)c2c(CCCCOc4ccccc4)ccc(CCCCOc4ccccc4)c32)cc1 [Specific Example (1)-37] | ≥10% wt % | 85.5% | 5% | 3% | 52.6% | 3% | 3% |
| COCCCCc1ccc(CCCCOC)c2c1-c1nc-2nc2[n-]c(nc3nc(nc4[n-]c(n1)c1c(CCCCOC)ccc(CCCCOC)c41)-c1c(CCCCOC)ccc(CCCCOC)c1-3)c1c(CCCCOC)ccc(CCCCOC)c21.[O]=[V+2] [Specific Example (1)-30] | ≥10% wt % | 86.1% | 5% | 5% | 53.2% | 6% | 6% |
